Consider 12 molecules from ChEMBL document CHEMBL1130581, “Inhibition of nematode induced root damage by derivatives of methylenecyclopropane acetic acid” (1997).

What all share (assay type): functional
Assay [1] has as its system Meloidogyne incognita. As to the kind of experiment: Average percent inhibition of nematode pest Meloidogyne incognita induced root galling of treated soil medium at 7.8 ppm.
Assay [2] relates to Meloidogyne incognita. Briefly: Average percent inhibition of nematode pest Meloidogyne incognita induced root galling of treated soil medium at 125 ppm.
The subject of assay [3] is Meloidogyne incognita. Briefly: Average percent inhibition of nematode pest Meloidogyne incognita induced root galling of treated soil medium at 0.5 ppm.
For assay [4], the system named is Meloidogyne incognita. As to the kind of experiment: Average percent inhibition of nematode pest Meloidogyne incognita induced root galling of treated sand medium at 125 ppm.
For assay [5], the system named is Meloidogyne incognita. Briefly: Average percent inhibition of nematode pest Meloidogyne incognita induced root galling of treated sand medium at 7.8 ppm.
In assay [6] the test system is Meloidogyne incognita. Briefly: Average percent inhibition of nematode pest Meloidogyne incognita induced root galling of treated sand medium at 0.5 ppm.
The subject of assay [7] is Meloidogyne incognita. Briefly: Lethal concentration required for inhibition of nematode induced root galling of treated sand medium to that of untreated soil medium.

Values after ≈ are worked out from the molar mass of the structure shown.

Turning to `C=C1C(CC(=O)OCc2cccc(Oc3ccccc3)c2)C1(F)F` (stereo not drawn), in the assay with Meloidogyne incognita [1], the inhibition at 7.8 ppm amounted to 0%. This molecule also registered an inhibition at 125 ppm in the assay on Meloidogyne incognita [2] of 25%. The same molecule had an inhibition at 0.5 ppm in the assay on Meloidogyne incognita [3] of 0%.
For the molecule `C=C1CC1CCSC1=NCCS1` (stereo not drawn), the inhibition at 7.8 ppm worked out at 25% in the assay with Meloidogyne incognita [1] and 100% with Meloidogyne incognita [5]. Moreover, the inhibition at 125 ppm with Meloidogyne incognita [2] and in the assay on Meloidogyne incognita [4] was 100% in each case. The values for the inhibition at 0.5 ppm in the assay with Meloidogyne incognita [3] and with Meloidogyne incognita [6] were 0% and 50%, respectively.
Turning to `CNC(=O)O/N=C/C(C)(C)SC` [ALDICARB], the LC50 with Meloidogyne incognita [7] came out at 3.8 µg/mL (≈ 20 µM).
Turning to `C=C1CC1CCN` (stereo not drawn), the values for the inhibition at 7.8 ppm in the assay on Meloidogyne incognita [1] and in the assay on Meloidogyne incognita [5] were 0% and 100%, respectively. The inhibition at 125 ppm with Meloidogyne incognita [2] turned out to be 75%; in the assay on Meloidogyne incognita [4] it was 100%. Further, the inhibition at 0.5 ppm with Meloidogyne incognita [3] came to 0%; in the assay on Meloidogyne incognita [6], 25%.
Consider `C=C1CC1CCOC(=O)c1ccc(OCC)cc1` (stereo not drawn), for which the inhibition at 7.8 ppm is 0% in the assay with Meloidogyne incognita [1] and 100% in the assay with Meloidogyne incognita [5]. Further, the inhibition at 125 ppm in the assay on Meloidogyne incognita [2] and in the assay with Meloidogyne incognita [4] was 100% each time. Also, the inhibition at 0.5 ppm worked out at 0% in the assay on Meloidogyne incognita [3] and 100% in the assay with Meloidogyne incognita [6].
With `C=C1CC1CC(=O)OCc1cccc(Oc2ccccc2)c1` (stereo not drawn), the inhibition at 7.8 ppm is 0% in the assay on Meloidogyne incognita [1] and 100% in the assay with Meloidogyne incognita [5]. Moreover, the inhibition at 125 ppm turned out to be 50% with Meloidogyne incognita [2] and 100% in the assay with Meloidogyne incognita [4]. In addition, the inhibition at 0.5 ppm came out at 0% in the assay on Meloidogyne incognita [3] and 50% in the assay on Meloidogyne incognita [6].
With `C=C1CC1CC(N)=O` (stereo not drawn), the inhibition at 7.8 ppm in the assay with Meloidogyne incognita [1] was 0%; in the assay on Meloidogyne incognita [5] it was 100%. For the same molecule, the inhibition at 125 ppm in the assay with Meloidogyne incognita [2] and in the assay on Meloidogyne incognita [4] was 100% each time. In addition, the inhibition at 0.5 ppm in the assay on Meloidogyne incognita [3] and in the assay on Meloidogyne incognita [6] was 0% each time.
Consider `C=C1C(CC(=O)OCCCCCCCCCCCCCCCC)C1(F)F` (stereo not drawn), for which the inhibition at 7.8 ppm with Meloidogyne incognita [1] stood at 0%. For the same molecule, at 125 ppm the inhibition in the assay on Meloidogyne incognita [2] was 0%. Further, the inhibition at 0.5 ppm in the assay on Meloidogyne incognita [3] was 0%.
For `C=C1CC1CC(=O)O` (stereo not drawn), the figures for the inhibition at 7.8 ppm in the assay on Meloidogyne incognita [1] and in the assay on Meloidogyne incognita [5] were 15% and 100%, respectively. Besides, the figures for the inhibition at 125 ppm in the assay on Meloidogyne incognita [2] and in the assay on Meloidogyne incognita [4] were 80% and 100%, respectively. For the same molecule, the inhibition at 0.5 ppm is 0% in the assay on Meloidogyne incognita [3] and 90% in the assay with Meloidogyne incognita [6].
In the case of `CC1CC1CC(=O)O` (stereo not drawn), the inhibition at 7.8 ppm was 0% with Meloidogyne incognita [1] and 100% in the assay on Meloidogyne incognita [5]. The inhibition at 125 ppm was 0% in the assay with Meloidogyne incognita [2] and 100% in the assay with Meloidogyne incognita [4]. Further, the inhibition at 0.5 ppm with Meloidogyne incognita [3] and in the assay with Meloidogyne incognita [6] was 0% each time.
`C=C1C(CC(=O)O)C1(F)F` (stereo not drawn) displayed an inhibition at 7.8 ppm in the assay on Meloidogyne incognita [1] of 0%. This molecule displayed an inhibition at 125 ppm in the assay on Meloidogyne incognita [2] of 100%. The molecule also displayed an inhibition at 0.5 ppm in the assay on Meloidogyne incognita [3] of 0%.
Take `C=C1CC1CC(=O)OCCCCCCCCCCCCCCCC` (stereo not drawn): the inhibition at 7.8 ppm in the assay on Meloidogyne incognita [1] was found to be 50%; in the assay with Meloidogyne incognita [5], 100%. Also, the inhibition at 125 ppm in the assay on Meloidogyne incognita [2] and in the assay on Meloidogyne incognita [4] was 100% each time. Moreover, the inhibition at 0.5 ppm with Meloidogyne incognita [3] worked out at 0%; in the assay on Meloidogyne incognita [6] it was 100%.

The inhibition is the drop in the measured response relative to a control, in per cent. Higher therefore signals a response far below the control. As usually defined, the LC50 is the concentration lethal to half of the exposed cells or organisms. The low end stands for a more lethal substance, the high end for a less lethal substance.
